Measured values as given in patent US20200113923A1, “DOT1L INHIBITORS FOR USE IN THE TREATMENT OF LEUKEMIA” (Epizyme, Inc., priority 2012, published 2020).

Tests used:
Format in all cases: cell-based, Human
[1] = test system: DOT1L; assay: Quantitative real-time PCR, DOT1L expression after DOT1L inhibitor treatment; settings: up to 10 μM for 6 days, qPCR
Protocol: (§1) Exponentially growing EOL-1 cells were plated in a 12 well plate at 2×10^5 cells/mL. […] On day 4, cells were maintained in log phase culture by reseeding at 5×10^5 cells/mL and compound was replenished. At day 6 cells were washed twice with PBS and pelleted by centrifugation at 200×g. Cell pellets were lysed in 300 μL RLT buffer (Qiagen) and total RNA was isolated using the RNeasy total RNA isolation kit (Qiagen 74106). Total RNA (1 μg) was reverse transcribed using a high capacity cDNA reverse transcription kit (Applied Biosystems 4368813). RNA isolation and cDNA synthesis were carried out according to the manufacturer's protocol. Predesigned labeled primer and probe sets for HOXA9 (Hs00365956), MEIS1 (Hs00180020) and FLT3 (Hs00975659) were purchased from Applied Biosystems. Quantitative real-time PCR (qPCR) reactions contained 50 ng cDNA, 1× labeled primer and probe set, and 1× Taqman universal PCR master mix (Applied Biosystems 4304437). Samples were run on a 7900 HT Fast Real Time PCR machine (Applied Biosystems 4351405) with cycling conditions of 2 min 50° C., 10 min 95° C., 40 cycles at 15 sec 95° C. and 1 min 60° C. […] Percent of DMSO control was calculated with the equation (2^−ΔΔCT)*100 where the ΔΔCT is the difference between normalized target gene and DMSO control (ΔCT sample−ΔCT control=ΔΔCT).

[2] = test system: HOXA9; assay: Quantitative real-time PCR, HOXA9 expression after DOT1L inhibitor treatment; settings: up to 10 μM for 6 days, qPCR
Protocol: as §1, with “control=ΔΔCT). […]” for “control=ΔΔCT).”

[3] = test system: FLT3; assay: Quantitative real-time PCR, FLT3 expression after DOT1L inhibitor treatment; settings: up to 10 μM for 6 days, qPCR
Protocol: as §1, with “control=ΔΔCT). […]” for “control=ΔΔCT).”

[4] = test system: MEIS1; assay: Quantitative real-time PCR, MEIS1 expression after DOT1L inhibitor treatment; settings: up to 10 μM for 6 days, qPCR
Protocol: as §1

[5] = test system: H3K79me2; assay: H3K79me2 immunoblot in EOL-1 cells
Protocol: Nuclei were collected by centrifugation at […] for 5 minutes at 4° C. and washed once in Tris/EDTA buffer (pH 7.4). Supernatant was removed and histones extracted for one hour with 60 μl 0.4 N cold sulfuric acid. Extracts were clarified by centrifugation at 10,000 g for 10 minutes at 4° C. and transferred to a fresh microcentrifuge tube containing 600 μl ice cold acetone. Histones were precipitated at −20° C. for 2 hours, pelleted by centrifugation at 10,000 g for 10 minutes and resuspended in 60 μl distilled water (DI water). Total protein of the acid extracts was assessed using a bicinchoninic acid (BCA) protein quantification assay with a bovine serum albumin (BSA) standard (Pierce Biotechnology).
For immunoblot analysis of the H3K79me2 inhibition by DOT1L inhibitor, exponentially growing EOL-1 cells were seeded at 2×10^5 cells/mL and incubated in the presence of increasing concentrations of DOT1L inhibitor for 4 days. […] Signal intensities specific for each methyl-specific antibody was quantified using Odyssey software and normalized to that of the appropriate total histone control signal on the same filter by dividing the methyl-specific antibody signal intensity by the total histone control signal intensity.
Inhibition of methylation of H3K79 was assessed after 4 days of treatment of DOT1L compounds in exponentially growing EOL-1 cells. […]

[6] = test system: EOL-1 cells; assay: EOL-1 cell growth and viability assay (Guava Viacount, 11 days)
Protocol: Human leukemia cell line EOL-1 (Catalog # ACC-386) was purchased from DSMZ and were grown in Roswell Park Memorial Institute medium (RPMI) with 10% Fetal Bovine Serum (FBS). Cells were kept in log growth as outlined in the technical data sheet provided by the vendor.
Exponentially growing EOL-1 cells were plated in 96-well plates at a density of 3×10^4 viable cells/well. Each treatment was seeded in triplicate with a final well volume of 150 μLs. Cells were incubated with increasing concentrations of DOT1L inhibitor up to 50 μM. Viable cell number was determined every 3-4 days for 11 days using the Guava Viacount assay (Millipore #4000-0040) and analyzed on a Guava EasyCyte Plus instrument according to the manufacturer's protocol. On the days of cell counts, growth media and inhibitor were replenished and cells maintained in log phase culture by reseeding at a density of 5×10^4 viable cells/well. Total cell number was expressed as split-adjusted viable cells per well. For each cell inhibitor IC50 values were determined from concentration-dependence curves at day 11. […]
The effect of DOT1L inhibitors on leukemia cell growth and viability was investigated. […] The number of viable cells was determined every 3-4 days for 11 days. […] Total cell number was expressed as split-adjusted viable cells per well. […]

SMILES | DOT1L gene expression [1] | HOXA9 expression [2] | FLT3 expression [3] | MEIS1 expression [4] | inhibition of methyltransferase activity of DOT1L (H3K79me2 western blot) ([5]; 4 days, 0.009 to 10 μM) | IC50 ([5]; Homo sapiens, EOL1, 96 h, 4 days of treatment, read-out: IC50, inhibition of methylation of H3K79 (H3K79me2)) | cell growth of EOL-1 cells ([6]; 0.003 μM-50 μM, 11 days, MLL PTD cell line) | IC50 ([6]; Homo sapiens, EOL1, 264 h, concentration-dependence curves at day 11)
CC(C)N(CCCNC(=O)Nc1ccc(C(C)(C)C)cc1)CC1O[C@@H](n2ccc3c(N)ncnc32)[C@H](O)[C@@H]1O (stereo partly shown) [Compound T] | not reduced | reduced in a dosage-dependent manner | reduced in a dosage-dependent manner | reduced in a dosage-dependent manner |  |  |  | 
CC(C)N(C[C@H]1O[C@@H](n2cnc3c(N)ncnc32)[C@H](O)[C@@H]1O)[C@H]1C[C@@H](CCc2nc3cc(C(C)(C)C)ccc3[nH]2)C1 [Compound A2, (2R,3R,4S,5R)-2-(6-amino-9H-purin-9-yl)-5-((((1r,3S)-3-(2-(5-(tert-butyl)-1H-benzo[d]imidazol-2-yl)ethyl)cyclobu-tyl)(isopropyl)a-mino)methyl)tet-rahydrofuran-3,4-diol] |  | reduced in a dose-dependent manner | reduced in a dose-dependent manner |  | dose-dependent inhibition | 27 nM | significantly inhibited | 2 nM
